Laboratory results published in patent US10570177B2, “P3 peptidylic inhibitors for treating CAG-repeat RNA toxicity in polyglutamine diseases” (The Chinese University of Hong Kong, priority 2017, dated 2020).
Several values for one entry are separate records, joined by “and”; a condition that tells them apart may be missing. Identical values can stand only once. Entries after “also recorded” stand apart in the source; their conditions may differ. Starred links: 1 amine or outer side, 2 acyl side, 3 side chain; linkers in the order of their positions; H or OH if unused. Non-standard residues stand in square brackets, D forms with d. No end group written: not given here. gPNA = guanine base linked to N-(2-aminoethyl)-glycine backbone, Nc1nc2c(ncn2CC(=O)N(CCN[*:1])CC(=O)[*:2])c(=O)[nH]1; tPNA = thymine base linked to N-(2-aminoethyl)-glycine backbone, Cc1cn(CC(=O)N(CCN[*:1])CC(=O)[*:2])c(=O)[nH]c1=O; cPNA = cytosine base linked to N-(2-aminoethyl)-glycine backbone, Nc1ccn(CC(=O)N(CCN[*:1])CC(=O)[*:2])c(=O)n1; aPNA = adenine base linked to N-(2-aminoethyl)-glycine backbone, Nc1ncnc2c1ncn2CC(=O)N(CCN[*:1])CC(=O)[*:2]; hArg = N=C(N)NCCCC[C@H](N)C(=O)O; Orn = NCCC[C@H](N)C(=O)O; Dap = NC[C@H](N)C(=O)O; ∗∗ = not defined here

The substances below were run against MJDCAG78 RNA (assay: Isothermal titration calorimetry binding assay, expanded MJDCAG78 RNA). Settings: ITC at 25° C.; 0.7 mM peptide titrated into 0.5 μM MJDCAG78 RNA; one binding site model; mean ± S.E.M.
Procedure: Experiments were carried out using a MicroCal iTC200 isothermal titration calorimeter (GE Healthcare) at 25° C. Data were analyzed using the Origin® scientific plotting software version 7 (Microcal Software Inc.). All RNAs and peptides were dissolved in binding buffer (20 mM MOPS, pH 7.0; 300 mM NaCl) and 0.7 mM of peptide was titrated into 0.5 μM of RNA for each experiment. The concentration of RNA was estimated with appropriate extinction coefficients at 260 nm on a Nanodrop 2000 (Thermo Scientific). A reference power of 8 μcal/s was used with an initial 0.5 μl of injection of peptide followed by 2 μl for all subsequent titrations points with a 60 sec initial equilibrium delay and 150 sec pause between injections. The samples were stirred at a speed of 1000 rpm throughout the experiment. The thermal titration data were fitted to the ‘one binding site model’ to determine the dissociation constant (KD). Each experiment was repeated at least 3 times with consistent results obtained.
DGKSKGIAYIEYK [P3V3] was tested, and the Kd was 1.74 ± 0.67 µM.
With “H-tPNA-Asp-Gly-Lys-Ser-Lys-Gly-Ile-Ala-Tyr-Ile-Glu-Phe-Lys-NH2 ([tPNA]DGKSKGIAYIEFK-NH2; also: N-terminal amino group replaced by hydrogen) [P3V10]” the Kd was 2.2 µM and 2.24 µM.
“H-aPNA-**-Lys-Ser-Lys-Gly-Ile-Ala-Tyr-Ile-Glu-Phe-Lys-NH2 (H-[aPNA]KSKGIAYIEFK-NH2; not fully specified (residue 1); printed as H-aPNA-**-Lys-Ser-Lys-Gly-Ile-Ala-Tyr-Ile-Glu-Phe-Lys-NH2; also: N-terminal amino group replaced by hydrogen) [P3V25]” was tested, and the Kd was 8.28 ± 2.27 µM.
Work on “Hi-cPNA-**-Lys-Ser-Lys-Gly-Ile-Ala-Tyr-Ile-Glu-Phe-Lys-NH2 (H-[cPNA][∗∗]KSKGIAYIEFK-NH2; not fully specified; printed as Hi-cPNA-**-Lys-Ser-Lys-Gly-Ile-Ala-Tyr-Ile-Glu-Phe-Lys-NH2; reading uncertain; also: N-terminal amino group replaced by hydrogen) [P3V24]” yielded a Kd of 0.96 µM.
“DGKSKGIAYIEFKDGKSKGIAYIEFK [P3V20, linear dimer of P3V8]” was tested, and the KD was “did not show any binding; also recorded: No binding”.
DGRSRGIAYIEFR [P3V6] was tested, and the Kd was 23 µM and 23.3 µM.
For “Ac-Asp-Gly-(Orn)-Ser-Lys-Gly-Ile-Ala-Tyr-Ile-Glu-Phe-Lys-NH2 (Ac-DG[Orn]SKGIAYIEFK-NH2) [P3V16]”, the KD was “No binding”.
For “H-cPNA-gPNA-tPNA-Asp-Gly-Lys-Ser-*-Gly-Ile-Ala-Tyr-Ile-Glu-Phe-Lys-NH2 (H-[cPNA][gPNA][tPNA]DGKSGIAYIEFK-NH2; not fully specified (residue 7); printed as H-cPNA-gPNA-tPNA-Asp-Gly-Lys-Ser-*-Gly-Ile-Ala-Tyr-Ile-Glu-Phe-Lys-NH2; also: N-terminal amino group replaced by hydrogen) [P3V13]”, the Kd was 10.8 ± 3.08 µM.
DGKSKGIAWIEFK [P3V2] was tested, and the Kd was 2.2 µM and 2.21 µM.
With “DGKSKGIAYIEFKGDGKSKGIAYIEFK [P3V21, linear dimer of P3V8]” the KD was “did not show any binding; also recorded: No binding”.
With “Ac-Asp-Gly-Lys-Ser-(Dap)-Gly-Ile-Ala-Tyr-Ile-Glu-Phe-Lys-NH2 (Ac-DGKS[Dap]GIAYIEFK-NH2; SMILES CC[C@H](C)[C@H](NC(=O)CNC(=O)[C@H](CN)NC(=O)[C@H](CO)NC(=O)[C@H](CCCCN)NC(=O)CNC(=O)[C@H](CC(=O)O)NC(C)=O)C(=O)N[C@@H](C)C(=O)N[C@@H](Cc1ccc(O)cc1)C(=O)N[C@H](C(=O)N[C@@H](CCC(=O)O)C(=O)N[C@@H](Cc1ccccc1)C(=O)N[C@@H](CCCCN)C(N)=O)[C@@H](C)CC) [P3V19]” the KD was “No binding”.
DGKSKGIAYIEFK [P3V7] showed a Kd of 3.67 ± 0.26 µM.
With “H-gPNA-**-Lys-Ser-Lys-Gly-Ile-Ala-Tyr-Ile-Glu-Phe-Lys-NH2 (H-[gPNA]KSKGIAYIEFK-NH2; not fully specified (residue 1); printed as H-gPNA-**-Lys-Ser-Lys-Gly-Ile-Ala-Tyr-Ile-Glu-Phe-Lys-NH2; also: N-terminal amino group replaced by hydrogen) [P3V26]” the Kd was 8.85 ± 2.85 µM.
Substance “H-Asp-Gly-Lys-Ser-Lys-Gly-Ile-tPNA-*-Ile-Glu-Phe-Lys-NH2 (H-DGKSKGI[tPNA]IEFK-NH2; not fully specified (residue 8); also: Asp N-terminal amino group replaced by hydrogen) [P3V12]” has a Kd of 9.93 ± 2.19 µM.
For “Ac-Asp-Gly-(Dap)-Ser-Lys-Gly-Ile-Ala-Tyr-Ile-Glu-Phe-Lys-NH2 (Ac-DG[Dap]SKGIAYIEFK-NH2; SMILES CC[C@H](C)[C@H](NC(=O)CNC(=O)[C@H](CCCCN)NC(=O)[C@H](CO)NC(=O)[C@H](CN)NC(=O)CNC(=O)[C@H](CC(=O)O)NC(C)=O)C(=O)N[C@@H](C)C(=O)N[C@@H](Cc1ccc(O)cc1)C(=O)N[C@H](C(=O)N[C@@H](CCC(=O)O)C(=O)N[C@@H](Cc1ccccc1)C(=O)N[C@@H](CCCCN)C(N)=O)[C@@H](C)CC) [P3V18]”, the KD was “No binding”.
Work on “H-Asp-Gly-Lys-Ser-Lys-Gly-Ile-Ala-Tyr-Ile-Glu-Phe-Lys-tPNA-cPNA-gPNA-NH2 (DGKSKGIAYIEFK[tPNA][cPNA][gPNA]-NH2; also: Asp N-terminal amino group replaced by hydrogen) [P3V23]” yielded a Kd of 233 ± 98.9 µM.
DGRSRGIAYIEFK [P3V5] was tested, and the Kd was ~0.86 µM and 0.86 µM.
In the case of DGKSKGIAYIEWK [P3V4], the Kd is reported as 4.44 ± 0.47 µM.
DGKSKGIAYIEAK [P3MT4] was tested, and the Kd was 17 µM and 17.4 µM.
For DGASKGIAYIEFK [P3MT1], the Kd was 31.3 ± 8.29 µM.
DGKSKGIAAIEFK [P3MT3] was tested, and the Kd was 16 µM and 16.6 µM.
“Ac-Asp-Gly-Lys-Ser-(Orn)-Gly-Ile-Ala-Tyr-Ile-Glu-Phe-Lys-NH2 (Ac-DGKS[Orn]GIAYIEFK-NH2) [P3V17]” was tested, and the KD was “No binding”.
DGKSKGIAYIEFA [P3MT5] was tested, and the Kd was 51 µM and 51.3 µM.
Work on “H-tPNA-**-Lys-Ser-Lys-Gly-Ile-Ala-Tyr-Ile-Glu-Phe-Lys-NH2 (H-[tPNA]KSKGIAYIEFK-NH2; not fully specified (residue 1); printed as H-tPNA-**-Lys-Ser-Lys-Gly-Ile-Ala-Tyr-Ile-Glu-Phe-Lys-NH2; also: N-terminal amino group replaced by hydrogen) [P3V11]” yielded a Kd of 0.12 µM.
“H-Asp-Gly-Lys-Ser-Lys-Gly-Ile-Ala-Tyr-Ile-Glu-Phe-Lys-tPNA-NH2 (DGKSKGIAYIEFK[tPNA]-NH2; also: Asp N-terminal amino group replaced by hydrogen) [P3V22]” was tested, and the KD was “No binding”.
For DGKSAGIAYIEFK [P3MT2], the Kd was 100 µM and 101 µM.
For “H-cptPNA-**-Lys-Ser-Lys-Gly-Ile-Ala-Tyr-Ile-Glu-Phe-Lys-NH2 (H-XKSKGIAYIEFK-NH2; not fully specified (residue 1); printed as H-cptPNA-**-Lys-Ser-Lys-Gly-Ile-Ala-Tyr-Ile-Glu-Phe-Lys-NH2; also: N-terminal amino group replaced by hydrogen) [P3V27]”, the Kd was 11.2 ± 4.37 µM.
For “Ac-Asp-Gly-Lys-Ser-(hArg)-Gly-Ile-Ala-Tyr-Ile-Glu-Phe-Lys-NH2 (Ac-DGKS[hArg]GIAYIEFK-NH2; SMILES CC[C@H](C)[C@H](NC(=O)CNC(=O)[C@H](CCCCNC(=N)N)NC(=O)[C@H](CO)NC(=O)[C@H](CCCCN)NC(=O)CNC(=O)[C@H](CC(=O)O)NC(C)=O)C(=O)N[C@@H](C)C(=O)N[C@@H](Cc1ccc(O)cc1)C(=O)N[C@H](C(=O)N[C@@H](CCC(=O)O)C(=O)N[C@@H](Cc1ccccc1)C(=O)N[C@@H](CCCCN)C(N)=O)[C@@H](C)CC) [P3V15]”, the KD was “No binding”.
In the case of “Ac-Asp-Gly-(hArg)-Ser-Lys-Gly-Ile-Ala-Tyr-Ile-Glu-Phe-Lys-NH2 (Ac-DG[hArg]SKGIAYIEFK-NH2; SMILES CC[C@H](C)[C@H](NC(=O)CNC(=O)[C@H](CCCCN)NC(=O)[C@H](CO)NC(=O)[C@H](CCCCNC(=N)N)NC(=O)CNC(=O)[C@H](CC(=O)O)NC(C)=O)C(=O)N[C@@H](C)C(=O)N[C@@H](Cc1ccc(O)cc1)C(=O)N[C@H](C(=O)N[C@@H](CCC(=O)O)C(=O)N[C@@H](Cc1ccccc1)C(=O)N[C@@H](CCCCN)C(N)=O)[C@@H](C)CC) [P3V14]”, the KD is reported as “No binding”.
Substance DGRSRGIAYIEFK [P3V9] has a Kd of 2.34 ± 0.49 µM.

Same assay, conditions: relative to P3
With DGKSKGIAYIEYK [P3V3] the “improvement of binding affinity to expanded CAG RNA over P3” value (“improvement of binding affinity … over P3” below) was ~2 fold.
In the case of “Asp-(d-Ala)-Lys-Ser-Lys-Gly-Ile-Ala-Tyr-Ile-Glu-Phe-Lys (D[dA]KSKGIAYIEFK) [P3V1]”, the “improvement of binding affinity … over P3” value is reported as 4 fold.
With DGRSRGIAYIEFK [P3V5] the “improvement of binding affinity … over P3” value was ~10 fold.
With DGKSKGIAYIEWK [P3V4] the “improvement of binding affinity … over P3” value was ~4 fold.

Each substance was assayed on DsRedCAG100 flies (assay: Pseudopupil assay in DsRedCAG100 Drosophila (expanded CAG RNA neurodegeneration)). Settings: 1 μM treatment; 12 day-old flies.
Format: in vivo
Source text: Here the DsRedCAG0/100Drosophila model was utilized to investigate the suppressive effects of the P3 analogs on RNA toxicity. In this model, the CAG repeat is located in the 3′ untranslated region of the DsRed reporter gene-=. The transcribed expanded CAG RNA is not translated into polyQ protein, and thus the toxicity is solely attributed to the expression of DsRedCAG100 RNA. In brief, the expression of expanded CAG RNA causes severe retinal degeneration in the animal that can be quantified by a pseudopupil assay^7. Inhibitors that can suppress neurotoxicity will result in the recovery of the number of rhabdomeres within the ommatidium. To test the derivatives, third instar larvae were fed different amounts of peptide dissolved in sucrose solution for 2 hr and then allowed to culture in standard fly food until the flies were 12 days old, at which time they were sacrificed for the pseudopupil assay.
Flies were raised at 21.5° C. on cornmeal medium supplemented with dry yeast. Fly lines bearing UAS-DsRedCAG0 and UAS-DsRedCAG100 were kind gifts of Professor Nancy Bonini (University of Pennsylvania, USA). The gmr-GAL4 fly line was obtained from Bloomington Drosophila Stock Center. For pseudopupil assay, third instar larvae were fed with various amount of respective peptides dissolved in 2% sucrose solution for 2 hr and then continued to culture in standard fly food at 21.5° C.^38. Pseudopupil assay was performed on 12 day-old adult flies as mentioned previously^39. Images were captured by SPOT Insight CCD camera controlled by the SPOT Advanced software (Diagnostic instruments Inc.). Image processing was performed using the Adobe Photoshop CS software (Adobe). Each experiment was repeated at least 3 times (n=10 fly heads), and consistent results were obtained. For viability test of wild-type flies from egg to adult stage, eggs born within 5 hr were collected and cultured in fly food containing 10 or 50 μM of respective peptides at 21.5° C. Viability from egg-to-adult was calculated as the number of adult flies collected divided by the number of eggs examined. Each experiment was repeated for three times (at least 130 eggs were examined in each group). Two batches of independently synthesized peptides were used in the experiments.
DGRSRGIAYIEFK [P3V5] showed a pseudopupil score of 3.64±0.22.

Same assay, conditions: DsRedCAG100 flies, in words
For DGRSRGIAYIEFK [P3V5], the “suppression of neurotoxicity / retinal degeneration” value was “significantly suppressed neurotoxicity”.
